The values below come from US8673905B2, “Imidazo pyrazines” (Hoffmann-La Roche Inc., priority 2011, dated 2014).

Where a name gives a salt, the structure may show the parent alone.

The test system of one test is MV4-11 cells. In words: Cell Glo Viability Assay (Luminescence), MV4-11. The class given is cell-based. Particulars: Homo sapiens, 120 h; MV4-11 cells (mutated FLT3), 5 days, CellTiter-Glo; read-out: Cellular EC50 (μM) MV4-11. The procedure: (§1) Molm13 cells, a human acute monocytic leukemia cell line, and MV4-11 cells, a human leukemia cell line known to express mutated FLT3 cells (both from ATCC) were seeded separately at 2000 cells per well in 90 μL of RPMI1640 medium supplemented with 10% FBS in 96-well black-walled plates (BD Falcon). Test compounds were diluted at ten times of assay concentrations, 10 μL was added into duplicate wells. Plates were incubated at 37° C. with 5% CO2 for 5 days. Cell viability was assayed by CellTiter-Glo® Luminescent Cell Viability Assay (Promega) following manufacturer's protocol.
(§2) The results of this assay, given as EC50 values, indicate the concentration of test compound that inhibits tumor cell proliferation by 50%.

In the next test the test system is Molm13 cells. The test can be described thus: Cell Glo Viability Assay (Luminescence), Molm13. The class given is cell-based. The conditions noted are these: Homo sapiens, MOLM-13, 120 h, 5 days, CellTiter-Glo, read-out: Cellular EC50 (μM) Molm13. Here is the method: as §1, §2
In general terms: Cellular ATP, detected with luciferase, serves as a proxy for viable cell number.

The next test concerns the target human recombinant FLT3 (Homo sapiens (Human), UniProt P36888). In words: FLT3 Kinase Assay (Caliper mobility shift). Particulars: for IC50: 100 μM ATP, 28° C., 90 minutes, read-out: Enzyme IC50 (μM) FLT3; for inhibition at 10 µM: 10 μM test compound, reported where IC50 was not determined, read-out: % inhibition of FLT3 at 10 μM test compound concentration. The class given is biochemical. Here is the method: After incubation, the reaction product was analyzed by electrophoretic mobility shift run on Caliper by manufacturer's protocol.

Sequence of human recombinant FLT3 (P36888 27-993): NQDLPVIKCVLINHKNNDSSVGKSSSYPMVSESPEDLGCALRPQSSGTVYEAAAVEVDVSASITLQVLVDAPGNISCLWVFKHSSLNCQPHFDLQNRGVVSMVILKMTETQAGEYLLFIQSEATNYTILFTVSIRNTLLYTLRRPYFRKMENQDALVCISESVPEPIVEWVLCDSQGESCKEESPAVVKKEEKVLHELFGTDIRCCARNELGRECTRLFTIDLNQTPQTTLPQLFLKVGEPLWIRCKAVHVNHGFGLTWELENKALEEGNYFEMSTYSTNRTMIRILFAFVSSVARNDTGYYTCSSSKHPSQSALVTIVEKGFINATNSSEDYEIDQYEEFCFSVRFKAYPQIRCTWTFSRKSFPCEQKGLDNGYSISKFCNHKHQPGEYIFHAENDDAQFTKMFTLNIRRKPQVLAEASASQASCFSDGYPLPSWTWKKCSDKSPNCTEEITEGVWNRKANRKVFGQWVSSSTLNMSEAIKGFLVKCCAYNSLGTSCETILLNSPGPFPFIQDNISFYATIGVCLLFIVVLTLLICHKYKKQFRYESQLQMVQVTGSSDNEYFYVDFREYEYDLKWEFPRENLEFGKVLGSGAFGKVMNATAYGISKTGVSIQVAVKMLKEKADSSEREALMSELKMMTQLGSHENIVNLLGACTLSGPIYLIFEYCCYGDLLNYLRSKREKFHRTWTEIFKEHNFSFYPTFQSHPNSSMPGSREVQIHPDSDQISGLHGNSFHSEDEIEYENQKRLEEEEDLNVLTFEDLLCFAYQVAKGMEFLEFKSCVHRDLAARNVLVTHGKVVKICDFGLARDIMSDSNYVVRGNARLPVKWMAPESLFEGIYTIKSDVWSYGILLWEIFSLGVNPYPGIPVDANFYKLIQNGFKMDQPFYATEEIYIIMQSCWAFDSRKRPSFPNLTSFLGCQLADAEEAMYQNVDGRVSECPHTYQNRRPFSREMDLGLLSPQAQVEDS

In the case of `CNc1nccn2c(-c3ccnc(Nc4ccccc4)n3)cnc12` [Example 20, Methyl-[3-(2-phenylamino-pyrimidin-4-yl)-imidazo[1,2-a]pyrazin-8-yl]-amine], the EC50 in the test on MV4-11 cells is 0.041 µM; with Molm13 cells, 0.052 µM. Also, the IC50 on human recombinant FLT3 is less than 0.005 µM.
As for `CNc1nccc(-c2cnc3c(NC4CCNCC4)nccn23)n1` [Example 26, [3-(2-Methylamino-pyrimidin-4-yl)-imidazo[1,2-a]pyrazin-8-yl]-piperidin-4-yl-amine], the figures for the EC50 with MV4-11 cells and with Molm13 cells were 1.12 µM and 2.56 µM, respectively.
In the case of `CC(C)Nc1nccc(-c2cnc3c(NCCO)nccn23)n1` [Example 30, 2-[3-(2-Isopropylamino-pyrimidin-4-yl)-imidazo[1,2-a]pyrazin-8-ylamino]-ethanol], the EC50 in the test on MV4-11 cells was 0.745 µM; with Molm13 cells it was 2.19 µM.
As for `CN1CCN(c2nccn3c(-c4ccnc(NCc5ccc(Cl)cc5)n4)cnc23)CC1` [Example 59, (4-Chloro-benzyl)-{4-[8-(4-methyl-piperazin-1-yl)-imidazo[1,2-a]pyrazin-3-yl]-pyrimidin-2-yl}-amine; hydrochloride], the inhibition at 10 µM at human recombinant FLT3 was determined as 29.2%.
The same measure, in the same setting: the same measure for `CN1CCN(c2nccn3c(-c4ccnc(NCc5cccs5)n4)cnc23)CC1` [Example 64, {4-[8-(4-Methyl-piperazin-1-yl)-imidazo[1,2-a]pyrazin-3-yl]-pyrimidin-2-yl}-thiophen-2-ylmethyl-amine; hydrochloride]: 33.5%.
Regarding `N[C@H]1CC[C@H](Nc2nccn3c(-c4ccnc(NCc5cccc(Cl)c5)n4)cnc23)CC1` [Example 67, N-{3-[2-(3-Chloro-benzylamino)-pyrimidin-4-yl]-imidazo[1,2-a]pyrazin-8-yl}-cyclohexane-1,4-diamine; hydrochloride], the EC50 in the test on MV4-11 cells came to 0.017 µM; with Molm13 cells, 0.049 µM. In addition, at human recombinant FLT3, the IC50 was less than 0.005 µM.
The corresponding values for `N[C@H]1CC[C@H](Nc2nccn3c(-c4ccnc(NCc5ccccc5)n4)cnc23)CC1` [Example 68, N-[3-(2-Benzylamino-pyrimidin-4-yl)-imidazo[1,2-a]pyrazin-8-yl]-cyclohexane-1,4-diamine; hydrochloride] are 0.052 µM, 0.061 µM and less than 0.005 µM.
For `CN1CCN(c2nccn3c(-c4cccc(NCc5ccc(Cl)cc5)n4)cnc23)CC1` [Example 71, (4-Chloro-benzyl)-{6-[8-(4-methyl-piperazin-1-yl)-imidazo[1,2-a]pyrazin-3-yl]-pyridin-2-yl}-amine; hydrochloride], the inhibition at 10 µM on human recombinant FLT3 is 13.2%.
`c1ccc(CNc2nccc(-c3cnc4c(NCCN5CCOCC5)nccn34)n2)cc1` [Example 72, [3-(2-Benzylamino-pyrimidin-4-yl)-imidazo[1,2-a]pyrazin-8-yl]-(2-morpholin-4-yl-ethyl)-amine; hydrochloride]: the EC50 was found to be 0.124 µM with MV4-11 cells and 0.171 µM in the test on Molm13 cells.
The corresponding values for `N[C@H]1CC[C@H](Nc2nccn3c(-c4cccc(NCc5ccccc5)n4)cnc23)CC1` [Example 73, N-[3-(6-Benzylamino-pyridin-2-yl)-imidazo[1,2-a]pyrazin-8-yl]-cyclohexane-1,4-diamine; hydrochloride] are 0.04 µM and 0.077 µM.
For the compound `CN1CCN(c2nccn3c(-c4ccnc(NC(CN)c5ccsc5)n4)cnc23)CC1` (stereo not drawn) [Example 75, N1-{4-[8-(4-Methyl-piperazin-1-yl)-imidazo[1,2-a]pyrazin-3-yl]-pyrimidin-2-yl}-1-thiophen-3-yl-ethane-1,2-diamine; hydrochloride], the concentration for a half-maximal effect (EC50) with MV4-11 cells was 0.878 µM; with Molm13 cells it was 1.69 µM.
Regarding `NCCC(Nc1nccc(-c2cnc3c(N[C@H]4CC[C@H](N)CC4)nccn23)n1)c1ccccc1` (stereo partly drawn) [Example 76, N-{3-[2-(3-Amino-1-phenyl-propylamino)-pyrimidin-4-yl]-imidazo[1,2-a]pyrazin-8-yl}-cyclohexane-1,4-diamine; hydrochloride], the EC50 in the test with MV4-11 cells came to 0.232 µM; in the test on Molm13 cells, 0.301 µM. The IC50 at human recombinant FLT3 is less than 0.005 µM.
The corresponding values for `NCC(Nc1nccc(-c2cnc3c(N[C@H]4CC[C@H](N)CC4)nccn23)n1)c1ccccc1` (stereo partly drawn) [Example 77, N-{3-[2-(2-Amino-1-phenyl-ethylamino)-pyrimidin-4-yl]-imidazo[1,2-a]pyrazin-8-yl}-cyclohexane-1,4-diamine; hydrochloride] are 0.015 µM, 0.08 µM and less than 0.005 µM.
Take `CN1CCN(c2nccn3c(-c4ccnc(NC(CN)c5cccc(Cl)c5)n4)cnc23)CC1` (stereo not drawn) [Example 79, 1-(3-Chloro-phenyl)-N1-{4-[8-(4-methyl-piperazin-1-yl)-imidazo[1,2-a]pyrazin-3-yl]-pyrimidin-2-yl}-ethane-1,2-diamine; hydrochloride]: the EC50 came out at 1.01 µM in the test with MV4-11 cells and 1.97 µM with Molm13 cells.
For the compound `NCC(Nc1cccc(-c2cnc3c(N[C@H]4CC[C@H](N)CC4)nccn23)n1)c1ccccc1` (stereo partly drawn) [Example 80, N-{3-[6-(2-Amino-1-phenyl-ethylamino)-pyridin-2-yl]-imidazo[1,2-a]pyrazin-8-yl}-cyclohexane-1,4-diamine; hydrochloride], the EC50 in the test on MV4-11 cells was less than 0.014 µM; with Molm13 cells, 0.041 µM. For the same compound, the half-maximal inhibitory concentration (IC50) at human recombinant FLT3 was less than 0.005 µM.
As to `NCCC(Nc1cccc(-c2cnc3c(N[C@H]4CC[C@H](N)CC4)nccn23)n1)c1ccccc1` (stereo partly drawn) [Example 81, N-{3-[6-(3-Amino-1-phenyl-propylamino)-pyridin-2-yl]-imidazo[1,2-a]pyrazin-8-yl}-cyclohexane-1,4-diamine; hydrochloride], the 50% effective concentration (EC50) in the test with MV4-11 cells was 0.288 µM; in the test with Molm13 cells, 0.255 µM.
Take `N[C@H]1CC[C@H](Nc2nccn3c(-c4cccc(NCc5cccc(Cl)c5)n4)cnc23)CC1` [Example 82, N-{3-[6-(3-Chloro-benzylamino)-pyridin-2-yl]-imidazo[1,2-a]pyrazin-8-yl}-cyclohexane-1,4-diamine; hydrochloride]: the results for the concentration for a half-maximal effect (EC50) in the test on MV4-11 cells and with Molm13 cells were 0.049 µM and 0.119 µM, respectively.
For `N[C@H]1CC[C@H](Nc2nccn3c(-c4ccnc(NCc5ccccc5Cl)n4)cnc23)CC1` [Example 83, N-{3-[2-(2-Chloro-benzylamino)-pyrimidin-4-yl]-imidazo[1,2-a]pyrazin-8-yl}-cyclohexane-1,4-diamine; hydrochloride], the values for the EC50 in the test on MV4-11 cells and in the test on Molm13 cells were 0.016 µM and 0.021 µM, respectively. Moreover, the IC50 at human recombinant FLT3 is less than 0.005 µM.
The corresponding values for `N[C@H]1CC[C@H](Nc2nccn3c(-c4cccc(NCc5ccsc5)n4)cnc23)CC1` [Example 84, N-(3-{6-[(Thiophen-3-ylmethyl)-amino]-pyridin-2-yl}-imidazo[1,2-a]pyrazin-8-yl)-cyclohexane-1,4-diamine; hydrochloride] are 0.068 µM, 0.056 µM and less than 0.005 µM.
As to `N[C@H]1CC[C@H](Nc2nccn3c(-c4cccc(NCc5ccccc5Cl)n4)cnc23)CC1` [Example 85, N-{3-[6-(2-Chloro-benzylamino)-pyridin-2-yl]-imidazo[1,2-a]pyrazin-8-yl}-cyclohexane-1,4-diamine; hydrochloride], the EC50 in the test on MV4-11 cells and in the test on Molm13 cells was less than 0.014 µM throughout. For the same compound, on human recombinant FLT3, the IC50 is less than 0.005 µM.
With `N[C@H]1CC[C@H](Nc2nccn3c(-c4cccc(NCc5ccc(Cl)cc5)n4)cnc23)CC1` [Example 86, N-{3-[6-(4-Chloro-benzylamino)-pyridin-2-yl]-imidazo[1,2-a]pyrazin-8-yl}-cyclohexane-1,4-diamine; hydrochloride], the half-maximal effective concentration (EC50) in the test with MV4-11 cells turned out to be 0.385 µM; in the test on Molm13 cells, 0.353 µM.
The corresponding values for `N[C@H]1CC[C@H](Nc2nccn3c(-c4cccc(NCc5cccs5)n4)cnc23)CC1` [Example 87, N-(3-{6-[(Thiophen-2-ylmethyl)-amino]-pyridin-2-yl}-imidazo[1,2-a]pyrazin-8-yl)-cyclohexane-1,4-diamine; hydrochloride] are 0.07 µM and 0.074 µM.
The corresponding values for `Clc1ccccc1CNc1nccc(-c2cnc3c(NCCN4CCOCC4)nccn23)n1` [Example 88, {3-[2-(2-Chloro-benzylamino)-pyrimidin-4-yl]-imidazo[1,2-a]pyrazin-8-yl}-(2-morpholin-4-yl-ethyl)-amine; hydrochloride] are 0.055 µM and 0.037 µM.
The corresponding values for `Clc1cccc(CNc2nccc(-c3cnc4c(NCCN5CCOCC5)nccn34)n2)c1` [Example 89, {3-[2-(3-Chloro-benzylamino)-pyrimidin-4-yl]-imidazo[1,2-a]pyrazin-8-yl}-(2-morpholin-4-yl-ethyl)-amine; hydrochloride] are 0.06 µM and 0.075 µM.
In the case of `NCCC(Nc1cccc(-c2cnc3c(NCCN4CCOCC4)nccn23)n1)c1cccc(Cl)c1` (stereo not drawn) [Example 90, 1-(3-Chloro-phenyl)-N-1-{6-[8-(2-morpholin-4-yl-ethylamino)-imidazo[1,2-a]pyrazin-3-yl]-pyridin-2-yl}-propane-1,3-diamine hydrochloride], the values for the EC50 with MV4-11 cells and in the test on Molm13 cells were less than 0.014 µM and 0.034 µM, respectively. The IC50 at human recombinant FLT3 was less than 0.005 µM.

As a reminder, the EC50 is the concentration that produces a half-maximal response. Broadly, the IC50 is the concentration that gives 50% inhibition.
